The numbers were not newly measured in patent US20210227865A1, “LOW GLYCEMIC COMPOSITION AND METHODS OF MAKING AND USING THEREOF” (Seattle Gummy Company, priority 2018, published 2021), which cites them from elsewhere.

The conditions of series [1]: FIG. 3 (trehalose), FIG. 4 (isomaltulose).
For series [2] the following is noted: for sweetness compared with sucrose (in words): relative to sucrose (table sugar).
For series [3] the following is noted: in vivo.

On to `OC[C@H]1O[C@H](O[C@H]2O[C@H](CO)[C@@H](O)[C@H](O)[C@H]2O)[C@H](O)[C@@H](O)[C@@H]1O` [trehalose], for which the “effect on blood glucose levels (in words)” value in series [1] is listed as “does not cause a spike in glucose levels”.
For `O=C(CO)[C@H](O)[C@H](O)[C@H](O)CO` [Psicose, psicose], in series [2] (relative to sucrose), the “sweetness relative to sucrose” value is given as 70%. Besides, the “sweetness compared with sucrose (in words)” value in series [2] is listed as “identical to sucrose”.
With `O=C(CO)[C@@H](O)[C@H](O)[C@H](O)CO` [fructose], the GI value in series [3] is listed as 19.
Regarding `OC[C@H]1O[C@H](OC[C@H]2OC(O)(CO)[C@@H](O)[C@@H]2O)[C@H](O)[C@@H](O)[C@@H]1O` (stereo partly drawn) [Isomaltulose, isomaltulose], in series [1], the “effect on blood glucose levels (in words)” value is “does not cause a spike in glucose levels”. Further, in series [3], the GI value result is recorded as “about 30”.
As for `O=C(CO)[C@H](O)[C@@H](O)[C@H](O)CO` [Sorbose, sorbose], the “sweetness compared with sucrose (in words)” value in series [2] is “equivalent to sucrose in sweetness”.
Consider `O=C(CO)[C@@H](O)[C@@H](O)[C@H](O)CO` [Tagatose, tagatose], for which the “sweetness compared with sucrose (in words)” value in series [2] is reported as “nearly as sweet as sucrose”.
Regarding `OC[C@H]1O[C@@](CO)(O[C@H]2O[C@H](CO)[C@@H](O)[C@H](O)[C@H]2O)[C@@H](O)[C@@H]1O` [sucrose], in series [3], the GI value is 63.
